Laboratory results: patent EP0187057A1, “2-Phenyl-isopropyl-allophanate, preparation and pharmaceutical application” (priority 1984, dated 1986)
Several values for one entry are separate records, joined by “and”; a condition that tells them apart may be missing. Identical values can stand only once. Like-named read-outs stand apart in the source and are kept apart here.

Legend:
[1] = Acute toxicity by the digestive route, lethality after one week of observation; settings: in vivo, po, rat; for mortality at 168 h: read-out: Pourcentage de létalité Rats
Method: Des doses croissantes de produit (SCS 289) ont été administrées, par voie digestive, sous forme de suspensions gommeuses, sous le volume de 0,50 ml/20 g de poids corporel chez la souris et 0,50 ml/100 g de poids corporel chez le rat (de 500 à 4000 mg/kg avec des intervalles de 500 mg/kg).
Les animaux ont été maintenus en observation pendant une semaine, tout d'abord dans le laboratoire (avec un chauffage d'appoint) jusqu'au réveil des animaux endormis, puis dans l'unité animale conditionnée et climatisée.
Le taux de mortalité relevé dans chaque lot de rats et de souris au terme de la semaine d'observation a été le suivant :
Les valeurs des DL50, calculées par la méthode de Miller et Tainter sont respectivement de : • - 2300 ± 102 m^g/k^g chez la souris; • - 2050 + 220 mg/kg chez le rat.

[2] = test system: myoclonies palpébrales provoquées par l'infusion veineuse de pentétrazol; experiment: Intravenous pentetrazol infusion producing palpebral myoclonus (threshold seizures); format: in vivo, lapin; settings: for Dose moyenne de pentétrazol: controls 23,0; for Quantité de pentétrazol nécessaire à l'apparition des myoclonies palpébrales / Temps d'infusion veineuse nécessaire à l'apparition des myoclonies palpébrales: individual animals; for Temps d'infusion veineuse nécessaire à l'apparition des myoclonies palpébrales: comma separates minutes and seconds
Text: (§1) Propriétés anticonvulsivantes : • On a effectué, pour déterminer ces propriétés anticonvulsivantes, des expérimentations sur le SCS 289 en procédant à des essais de protection : • - chez le lapin soumis à une transélectrification cranienne génératrice de crises épileptiformes de type "grand mal" ou recevant une infusion veineuse de pentétrazol provoquant l'apparition de myoclonies palpébrales; • - chez la souris recevant, par voie sous-cutanée des doses croissantes de pentétrazol entraînant convulsions et mort ou soumise à une transélectrification transcranienne à basse fréquence génératrice de crises psychomotrices.
Les résultats quant à la protection contre les crises pentétrazoliques liminaires génératrices de myaclonies palpébrales figurent dans les tableaux ci-après.
L'administration préalable de SCS 289 retarde l'apparition des myoclonies palpébrales provoquées par l'infusion veineuse de pentétrazol.
Une expérimentation similaire pratiquée en essais croisés a donné les résultats suivants pour divers anticonvulsivants de référence : […]

crises psychomotrices = experiment: Psychomotor seizures induced by low-frequency transcranial electrical stimulation; format: in vivo, souris; settings: for Pourcentage de souris protégées une heure après traitement: groupes de 20 souris
Text: as §1
On a également recherché si le SCS 289 était susceptible de protéger la souris contre le choc psychomoteur induit par une stimulation transcranienne à basse fréquence qui provoque, chez l'animal, un bref comportement de désorientation rappelant les attaques psychomotrices de l'homme.
Vis-à-vis des crises psychomotrices provoquées chez la souris par une stimulation électrique transcranienne à basse fréquence, le SCS 35 apparait plus actif que le SCS 289 : […]

crises pentétrazoliques = experiment: Convulsant and lethal effects of subcutaneous pentetrazol (125 mg/kg); format: in vivo, souris
Text: as §1
Pour déceler une synergie d'action antagoniste vis-à-vis des effets convulsivants et létaux du pentétrazol injecté par voie sous-cutanée chez la souris à la dose de 125 mg/kg, on a déterminé avec plus de précision la DE50 du SCS 289 et on a recherché si l'association avec le SCS 35 apportait un surcroit appréciable d'activité.
On n'a retenu comme significative que la protection à l'égard des effets létaux observés sur 24 heures.

[3] = Weights test (muscular strength); format: in vivo, souris; settings: mouse, in vivo, po; dose diminishing initial performance by 50 %; read-out: DA50 force musculaire
Text: (§2) On a donc étudié les effets dépresseurs que peuvent exercer des doses croissantes de SCS 289 sur : • - la motricité spontanée de la souris; • - sa curiosité, quantifiée par la méthode de la planche à trous; • - son agilité, évaluée par l'épreuve de la traction de Boissier et Simon; • - sa force musculaire, mesurée par l'épreuve des poids.
(§3) Les essais ont été pratiqués sur des groupes de 10 souris dont les performances motrices ont été mesurées à deux reprises : avant et une heure après traitement par le SCS 289 administré, par voie digestive à des doses allant de 10 à 200 mg/kg, actives vis-à-vis des convulsions pentétrazoliques et des crises psychomotrices. A noter que l'épreuve de la planche à trous utilisée pour chiffrer la curiosité des animaux (décompte du nombre de visites des trous) n'est pratiquée qu'une seule fois, le comportement explorateur des animaux traités étant alors comparé à celui des témoins.
(§4) Les résultats obtenus dans chaque groupe ont permis de calculer la DA50 capable de diminuer de 50 X les performances motrices initiales ou de diminuer de 50% la curiosité des souris traitées par rapport à celle des témoins.
(§5) Les expérimentations comportementales précédemment décrites ont été appliquées à des animaux recevant SCS 35 et SCS 289 aux doses de 10 et 25 mg/kg.

[4] = test system: force musculaire de la souris; experiment: Weights test (muscular strength); format: in vivo
Text: as §2, §3, §4, §5

[5] = lapins ayant reçu 50 mg/kg de SCS 289
[6] = lapins ayant reçu 100 mg/kg de SCS 289
[7] = index thérapeutique absolu, souris

SMILES: CC(C)OC(=O)N(C(N)=O)c1ccccc1 [SCS 289, phényl-2 allophanate d'isopropyle]
- LD50 at 168 h ([1]; voie digestive, méthode de Miller et Tainter, read-out: DL50): 2050 mg/kg
- mortality at 168 h ([1]; 500 mg/kg voie digestive): 0%
- mortality at 168 h ([1]; 1000 mg/kg voie digestive): 15%
- mortality at 168 h ([1]; 1500 mg/kg voie digestive): 30%
- mortality at 168 h ([1]; 2000 mg/kg voie digestive): 55%
- mortality at 168 h ([1]; 2500 mg/kg voie digestive): 60%
- mortality at 168 h ([1]; 3000 mg/kg voie digestive): 65%
- mortality at 168 h ([1]; 3500 mg/kg voie digestive): 80%
- mortality at 168 h ([1]; 4000 mg/kg voie digestive): 100%
- Elévation du seuil myoclonique ([2]; 50 mg/kg): 61,7%
- Dose moyenne de pentétrazol ([2]; 50 mg/kg): 37,2 mg/kg
- Elévation du seuil myoclonique ([2]; 100 mg/kg): 113%
- Dose moyenne de pentétrazol ([2]; 100 mg/kg): 49,2 mg/kg
- Quantité de pentétrazol nécessaire à l'apparition des myoclonies palpébrales [2, 5]: 40,78 mg/kg and 42,58 mg/kg and 51,43 mg/kg and 33,33 mg/kg and 43,68 mg/kg and 32,44 mg/kg and 22,22 mg/kg and 40 mg/kg and 45,15 mg/kg and 20 mg/kg
- Temps d'infusion veineuse nécessaire à l'apparition des myoclonies palpébrales [2, 5]: 26 minutes et secondes and 28 minutes et secondes (2×) and 36 minutes et secondes and 21,15 minutes et secondes and 31,40 minutes et secondes and 22,20 minutes et secondes and 15 minutes et secondes and 28,40 minutes et secondes and 16 minutes et secondes
- Quantité de pentétrazol nécessaire à l'apparition des myoclonies palpébrales [2, 6]: 51,85 mg/kg and 51,81 mg/kg and 46,28 mg/kg and 64 mg/kg and > 68,44 mg/kg and 45,15 mg/kg and 56,67 mg/kg and 33,84 mg/kg and 37,71 mg/kg and 36,41 mg/kg
- Temps d'infusion veineuse nécessaire à l'apparition des myoclonies palpébrales [2, 6]: 35 minutes et secondes and 37 minutes et secondes and 28 minutes et secondes and 32 minutes et secondes and > 45 minutes et secondes and 28,40 minutes et secondes and 34 minutes et secondes and 33 minutes et secondes (2×) and 35,30 minutes et secondes
- activité vis-à-vis des myoclonies palpébrales du lapin par rapport au valproate de sodium ([2]; relative activity, lapin): dix fois plus actif
- activité vis-à-vis des myoclonies palpébrales du lapin par rapport à la phénacétamide ([2]; relative activity, lapin): deux fois plus actif
- Pourcentage de souris protégées une heure après traitement (crises psychomotrices; 5 mg/kg voie digestive): 45%
- Pourcentage de souris protégées une heure après traitement (crises psychomotrices; 10 mg/kg voie digestive): 50%
- Pourcentage de souris protégées une heure après traitement (crises psychomotrices; 25 mg/kg voie digestive): 95%
- Pourcentage de souris protégées une heure après traitement (crises psychomotrices; 50 mg/kg voie digestive): 100%
- Pourcentage de souris protégées une heure après traitement (crises psychomotrices; 2,5 mg/kg voie digestive): 35%
- ED50 (crises psychomotrices; Mus musculus, po, souris, voie digestive, read-out: DE50 capable de protéger 50 % des animaux contre les crises psychomotrices): 4.5 mg/kg
- activité par rapport au valproate de sodium (comparaison des DE50) (crises psychomotrices; crises psychomotrices, souris): 26 fois
- activité par rapport à la phénacétamide (comparaison des DE50) (crises psychomotrices; crises psychomotrices, souris): trois fois plus actif
- DL50/DE50 / Crises psycho-motrices (crises psychomotrices; [7]): 511
- DE50 psychodépressive / DE50 anticonvulsivante / Crises psycho-motrices (crises psychomotrices; index thérapeutique relatif, psychodépressive = mean of DE50 for agilité, force musculaire, motricité, curiosité): 16
- DE50 capable de protéger 50 % des animaux contre les crises psychomotrices (crises psychomotrices; souris, voie digestive): 4,5 mg/kg and ~5,5 mg/kg
- % de protection vis-à-vis de la létalité pentétrazolique (crises pentétrazoliques; 10 mg/kg): 20%
- % de létalité en 24 h (crises pentétrazoliques; 10 mg/kg 1 h avant pentétrazol 125 mg/kg s.c., untreated 100): 80%
- % de protection vis-à-vis de la létalité pentétrazolique (crises pentétrazoliques; 20 mg/kg): 70%
- % de létalité en 24 h (crises pentétrazoliques; 20 mg/kg 1 h avant pentétrazol): 30%
- % de protection vis-à-vis de la létalité pentétrazolique (crises pentétrazoliques; 30 mg/kg): 100%
- % de létalité en 24 h (crises pentétrazoliques; 30 mg/kg 1 h avant pentétrazol): 0%
- % de protection vis-à-vis de la létalité pentétrazolique (crises pentétrazoliques; 40 mg/kg): 100%
- % de létalité en 24 h (crises pentétrazoliques; 40 mg/kg 1 h avant pentétrazol): 0%
- % de protection vis-à-vis de la létalité pentétrazolique (crises pentétrazoliques; 50 mg/kg): 100%
- % de létalité en 24 h (crises pentétrazoliques; 50 mg/kg 1 h avant pentétrazol): 0%
- ED50 (crises pentétrazoliques; Mus musculus, sc, 24 h, souris, read-out: DE50 à l'égard des crises pentétrazoliques maximales et létales): 15 mg/kg
- DL50/DE50 /pentétrazol (crises pentétrazoliques; [7]): 153
- ED50 at 1 h [3]: 63 mg/kg
- Propriétés déficitaires motrices sur la force musculaire (pourcentage de diminution des scores) ([4]; 10 mg/kg voie digestive, one hour after treatment): 3,8%
- Propriétés déficitaires motrices sur la force musculaire (pourcentage de diminution des scores) ([4]; 25 mg/kg): 8,3%
- Propriétés déficitaires motrices sur la force musculaire (pourcentage de diminution des scores) ([4]; 50 mg/kg): 33%
- Propriétés déficitaires motrices sur la force musculaire (pourcentage de diminution des scores) ([4]; 75 mg/kg): 31,9%
- Propriétés déficitaires motrices sur la force musculaire (pourcentage de diminution des scores) ([4]; 100 mg/kg): 80,4%
- Propriétés déficitaires motrices sur la force musculaire (pourcentage de diminution des scores) ([4]; 150 mg/kg): 100%
- Propriétés déficitaires motrices sur la force musculaire (pourcentage de diminution des scores) ([4]; 200 mg/kg): 100%
